{"source": "paper PMC8071435", "about": "“Amorphous Solid Dispersion Tablets Overcome Acalabrutinib pH Effect in Dogs” (Pharmaceutics, 2021)", "key": {"CYP3A4": {"test_system": "CYP3A4", "set-up": "method as in PMID 31306750", "conditions": "humans; cited from earlier work"}, "[1]": {"set-up": "method as in PMID 31306750", "conditions": "cited from earlier work"}, "[2]": {"set-up": "method as in PMID 31306750", "conditions": "cited from earlier work", "remark": "listed apart in the source"}, "[3]": {"set-up": "method as in PMID 31306750", "conditions": "humans; cited from earlier work"}, "[4]": {"set-up": "method as in PMID 31306750", "conditions": "cited from earlier work", "remark": "listed apart in the source"}, "[5]": {"assay": "Chemical stability: total impurities (total related substances) by RP-HPLC after storage", "format": "physicochemical", "conditions": "40 °C/75% RH/open, perforated seal", "experimental": "The ASD was stored at 40 °C/75% relative humidity (RH) to assess physical and chemical stability under accelerated storage conditions. Initial ASD samples and aged ASDs were analyzed for crystallinity using PXRD, thermal properties using mDSC, changes in morphology or presence of surface crystals using SEM, and chemical degradation by reverse-phase high-performance liquid chromatography (RP-HPLC). The ASD and ASD tablets were stored at ambient and refrigerated conditions to assess the chemical stability at nonaccelerated conditions. Initial and aged ASD samples were analyzed for total related substances using RP-HPLC. See Appendix A.3 for method details.\nASD and ASD tablet samples were analyzed for total related substances using RP-HPLC using a Waters XBridge C8 (150 × 3 mm, 3.5 µm pores) column (Waters Corporation, Milford, MO, USA) at a temperature of 40 °C. Mobile phase was pumped into the column at a flow rate of 0.7 mL/min using a gradient method. 10 mM ammonium acetate was used as mobile phase A and methanol was used as mobile phase B supplied according to the following sequence: 0 min: 20% B, 30 min: 70% B, 40 min: 70% B, 41 min: 20% B, […]. Samples were diluted with 8/2 (v/v) methanol/water and injection volume was 5 µL. The sample tray was held at uncontrolled room temperature. Analysis wavelength was 230 nm and 4 nm bandwidth.\nThe ASD was stored at 40 °C/75% relative humidity (RH) to assess physical and chemical stability when stored under accelerated conditions. Approximately 100 mg of ASD was placed in a single 4 mL glass vial, with enough glass vials prepared for each storage condition, timepoint and replicate. […] Initial ASD samples and aged ASDs were analyzed for crystallinity using SEM and PXRD, thermal properties using mDSC (in triplicate) and total related substances using RP-HPLC (duplicate analysis).\nAdditional ASD samples were stored at ambient and refrigerated conditions to assess the chemical stability upon storage at nonaccelerated conditions. […] Initial and aged ASD samples were analyzed for total related substances using RP-HPLC (duplicate analysis). […]"}}, "note": "Where two headings read alike, the source gives them in different places. Marks after values point to notes of the source that are not given here.", "data": [{"molecule": "CC#CC(=O)N1CCC[C@H]1c1nc(-c2ccc(C(=O)Nc3ccccn3)cc2)c2c(N)nccn12", "note": "[acalabrutinib]", "values": [{"measurement": "Fraction metabolized by CYP3A4 in the gut", "setting": "CYP3A4", "result": "approximately 50%"}, {"measurement": "log P", "setting": "[1]", "result": "2.0 ^a"}, {"measurement": "pKas in physiological range", "setting": "[2]; higher basic pKa", "result": 5.8}, {"measurement": "pKas in physiological range", "setting": "[2]; lower basic pKa", "result": 3.5}, {"measurement": "Fraction metabolized by first-pass liver extraction", "setting": "[3]", "result": 50, "unit": "%"}, {"measurement": "Crystalline intrinsic solubility", "setting": "[4]", "result": "48 ^a µg/mL"}, {"measurement": "Total impurities after 4 wk", "setting": "[5]; 4 wk", "result": "0.70 ± 0.04", "unit": "area%"}, {"measurement": "Total impurities after 12 wk", "setting": "[5]; 12 wk", "result": "0.94 ± 0.05", "unit": "area%"}, {"measurement": "Total impurities, initial", "setting": "[5]; initial (different ASD batch)", "result": "0.59 ± 0.00", "unit": "area%"}]}]}
